Source: patent US20240309049A1, “SYNTHETIC DNA BINDING DOMAIN PEPTIDES AND USES THEREOF” (The University of Chicago, priority 2016, published 2024)
Positions of bridges follow the written chain, without caps; N, C: chain ends. Non-standard residues stand in square brackets, D forms with d. No end group written: not given here. S5 = C=CCCC[C@](C)(N)C(=O)O; βAla = NCCC(=O)O

Tested on: E-box DNA (5′-CACGTG-3′)
Assay: Electrophoretic mobility shift assay (EMSA, gel shift) with fluorophore-labeled E-box oligonucleotide
Type: binding
Conditions: for E-box DNA binding in gel shift (in words): E-box probe
Protocol: FIG. 9 Representative electrophoretic mobility shift assay (EMSA, referred to as “Gel Shift) images of full length Myc/Max protein binding a fluorophore-labeled oligonucleotide containing an E-box binding site. Full-length Myc/Max binds in this assay with an affinity of ˜10 nM.
A fluorophore-labeled (5′-FAM) oligonucleotide containing a central E-box sequence was used (at 10 nM) to assess Myc/Max and DMD binding. This sequence was used in the Myc/Max/E-box crystal structure. […] The lower band is free E-box probe whereas the higher band is Myc/Max-bound E-box probe. Addition of excess non-labeled E-box probe (E1) competes this interaction. […] Thus, gel shift assays with the E-box probe are suitable for determining DMD (RTD) DNA-binding.
Representative gel shifts are shown for the Myc/Max heterodimer and members of the RTD2x, RTD8x and RTD7x series. Plotted are binding curves derived from the intensity of the free E-box probe (inhibition) and stable shifted band (binding).

| E-box DNA binding in gel shift (in words) | EC50 (E-box probe at 10 nM, read-out: EC50 for stable E-box binding / stable complex formation) [µM] | E-box DNA binding in gel shift (in words) (listed as MBS) | Kd (E-box oligonucleotide, read-out: binding affinity (Kd) for E-box DNA) [µM] | Substance |
| --- | --- | --- | --- | --- |
| both tight and stable binding | 0.05 to 0.1 | more stable DNA complex formation |  | 913-MBS: RTD913 design with rigid meta-xylyl linker MBS (Ac-W[βAla]KRAHHNALER[2‑amino‑2‑methylhept‑6‑enoic acid]RRD[S5]IKDSK; staple 13-17; also: dimer via MBS (meta-xylyl) linker, attachment site not given here) |
| less stable complex formation |  |  |  | AMAS: RTD913 sub-class dimer with short straight-chain AMAS linker (Ac-W[βAla]KRAHHNALER[2‑amino‑2‑methylhept‑6‑enoic acid]RRD[S5]IKDSK; staple 13-17; not fully specified (residue 22); also: dimer via AMAS linker, attachment site not given here) |
| less stable complex formation |  |  |  | EMCS: RTD913 sub-class dimer with long straight-chain EMCS linker (Ac-W[βAla]KRAHHNALER[2‑amino‑2‑methylhept‑6‑enoic acid]RRD[S5]IKDSK; staple 13-17; not fully specified (residue 22); also: dimer via EMCS linker, attachment site not given here) |
| specifically binds |  |  | ~0.01 | Myc/Max: full length recombinant Myc/Max protein heterodimer |
